# Values of other authors as cited in US20080102144A1, “FAT BETA-OXIDATION ENHANCING AND CARBOHYDRATE ABSORPTION INHIBITION SUPPLEMENT” (priority 2006, published 2008).
# Read-outs that look alike come from different tables or passages of the source.
# Legend:
# [1] = 16 weeks, versus triacylglycerol
# [2] = human studies, as opposed to triacylglycerol, no increase in energy expenditure
# [3] = system: carnitine palmitoyltransferase; conditions: 0.5% and 1.0% supplemented diets after 6 days
# [4] = system: hepatic glucose-6-phosphate (G-6-P); conditions: rate-limiting step in gluconeogenesis
# [5] = mice
compound,measurement,setting,value
diacylglycerol,body mass index,[1],significant decrease
same,body weight,[1],significant decrease
same,total fat area as assessed by CT scan,[1],significantly reduced
same,waist circumference,[1],significant decrease
same,β-oxidation of fatty acids,[2],increase
same,hepatic fat oxidation,"after a single dose, compared to triacylglycerol",significant increase
same,β-oxidation of fatty acids,"animal studies, compared against triacylglycerol",increase
same,"glucose-6-phophate dehydrogenase, malic enzyme, fatty acid synthase and fatty acid synthesis",rats fed diacylglycerol,lower
same,mitochondrial and peroxisome oxidation of palmtoyl-CoA in liver homogenates,rats fed diacylglycerol,increased
O=C(/C=C/c1ccc(O)c(O)c1)O[C@@H]1C[C@](O)(C(=O)O)C[C@@H](O)[C@H]1O [chlorogenic acid],carnitine palmitoyltransferase activity in the liver,[3],did not enhance
same,cell cycle phase of proliferation arrest,3T3-preadipocyte cells; 3T3-preadipocyte cells,G1 phase
same,proliferation of 3T3-preadipocyte cells,3T3-preadipocyte cells; addition to 3T3-preadipocyte tissue cultures,inhibited the proliferation in both and a time- and dose-dependant manner
same,inhibition of hepatic glucose-6-phosphate (G-6-P),[4],selectively inhibit
Cn1c(=O)c2c(ncn2C)n(C)c1=O [caffeine],total serum triglyceride levels,[5],decreased
